Measurements from ChEMBL document CHEMBL6103569, “Discovery of novel fluorine-containing parthenolide analogues as potential antitumor agents” (Eur J Med Chem, 2025).

What was measured:
Type in all cases: functional, cell-based
Huh-7 = assay: Antiproliferative activity against human Huh-7 cells assessed as inhibition of cell growth incubated for 72 hrs by MTT assay
[1] = Antiproliferative activity against human NCI-H820 cells assessed as inhibition of cell growth incubated for 72 hrs by MTT assay
PANC-1 = assay: Antiproliferative activity against human PANC-1 cells assessed as inhibition of cell growth incubated for 72 hrs by MTT assay

Row | SMILES | IC50 (Huh-7; Homo sapiens, Huh-7, 72 h) | IC50 ([1]; Homo sapiens, NCI-H820, 72 h) | IC50 (PANC-1; Homo sapiens, PANC-1, 72 h) | IC50 (Huh-7; huh-7) | IC50 ([1]; nci-h820) | IC50 (PANC-1; panc-1)
1 | C=C1C(=O)O[C@H]2[C@H]1CC/C(CSC#N)=C\CC[C@@]1(C)O[C@@H]21 | 1.5 µM | 2.04 µM | 1.35 µM | – | – | –
2 | C=C1C(=O)O[C@H]2[C@H]1CC/C(CO)=C\CC[C@@]1(C)O[C@@H]21 | 10.1 µM | 13.3 µM | 15.6 µM | – | – | –
3 | C[C@@]12CC/C=C(/CC(F)(F)F)CC[C@H]3C(CN4CCCC4)C(=O)O[C@@H]3[C@@H]1O2 (stereo partly drawn) | 3.57 µM | 6.65 µM | 5.68 µM | – | – | –
4 | C[C@@]12CC/C=C(/CC(F)(F)F)CC[C@H]3C(CN4CCC[C@H]4CO)C(=O)O[C@@H]3[C@@H]1O2 (stereo partly drawn) | 3.67 µM | 4.53 µM | 4.57 µM | – | – | –
5 | CN(C)CC1C(=O)O[C@H]2[C@H]1CC/C(CC(F)(F)F)=C\CC[C@@]1(C)O[C@@H]21 (stereo partly drawn) [listing 1 of 2 here] | – | – | – | 3.08 µM | 4.38 µM | 4.38 µM
6 | C=C1C(=O)O[C@H]2[C@H]1CC/C(CSC(F)(F)F)=C\CC[C@@]1(C)O[C@@H]21 | 0.99 µM | 1.37 µM | 1.09 µM | – | – | –
7 | CN(C)CC1C(=O)O[C@H]2[C@H]1CC/C(CC(F)(F)F)=C\CC[C@@]1(C)O[C@@H]21 (stereo partly drawn) [listing 2 of 2 here] | 2.64 µM | 3.86 µM | 3.8 µM | – | – | –
8 | C[C@@]12CC/C=C(/CC(F)(F)F)CC[C@H]3C(CN4CC[C@@H](O)C4)C(=O)O[C@@H]3[C@@H]1O2 (stereo partly drawn) | – | – | – | 3.1 µM | 3.95 µM | 3.23 µM
9 | C=C1C(=O)O[C@H]2[C@H]1CC/C(C=C(F)F)=C\CC[C@@]1(C)O[C@@H]21 | 7.52 µM | 9.9 µM | 14.2 µM | – | – | –
10 | C=C1C(=O)O[C@H]2[C@H]1CC/C(COC(F)F)=C\CC[C@@]1(C)O[C@@H]21 | 3.18 µM | 4.32 µM | 3.31 µM | – | – | –
11 | C[C@@]12CC/C=C(/CC(F)(F)F)CC[C@H]3C(CN4CCC(O)CC4)C(=O)O[C@@H]3[C@@H]1O2 (stereo partly drawn) | – | – | – | 2.38 µM | 4.88 µM | 5.43 µM
